From patent US4500708A, “Benzothiazine derivatives” (G. D. Serle & Co., priority 1984, dated 1985)

Key:
[1] = Food intake test (food-deprived rats); assay type: in vivo, Male Sprague-Dawley derived rats
Protocol: (§1) Male Sprague-Dawley derived rats, Charles River Breeders (Portage, MI), weighing between 200-400 grams at the time of testing, were employed in the food intake studies and water intake studies. The rats were housed individually and kept on a 12 hour light-dark light cycle. The room temperature ranged between 23°-25° C.
The rats employed in food intake testing were food deprived on the day preceding testing and were divided into experimental groups that were matched on the basis of average daily food intake and body weight. At approximately 24 hours post-deprivation, the rats were administered a test sample containing as the active ingredient a compound of the present invention. All test samples employed herein were prepared and homogenized in a vehicle of normal saline (to which a few drops of PG/Tween 80 was added). The test samples were administered at an injection volume of 2 ml./kg, unless otherwise stated. Thirty minutes following administration of the test samples, pre-weighed food jars, containing ground meal, were placed in the rats' cages. (Prior to testing the rats were given ground meal for a minimum of 3 days to familiarize the rats with this food.) After 1, 2 and 6 hours of food access, the jars were removed, weighed and returned to the rats' cages providing a 1, 2 and 6 hour intake measurement. The results obtained are represented in Table I. A student t test was used for making statistical comparisons, and the p-values are based upon two-tailed comparisons. The compound employed as the active ingredient of the test sample is indicated by the example number which describes its preparation.

[2] = Water intake test (water-deprived rats); assay type: in vivo, Male Sprague-Dawley derived rats; details: for Water Intake as a % of Control, 15 m: 15 minutes; for Water Intake as a % of Control, 30 m: 30 minutes; for Water Intake as a % of Control, 45 m: 45 minutes; for Water Intake as a % of Control, 60 m: 60 minutes; for Water Intake as a % of Control, 120 m: 120 minutes
Protocol: as §1
The rats employed in water intake testing were water deprived for 1 day and then maintained on a restricted water schedule. Water was available for two hours on the first day post water deprivation and for 1 hour each day afterwards for a minimum of 1 week. Using drinking tubes (50 ml. graduated cylinders), water intake was measured for at least 3 consecutive days prior to testing. On the day preceding testing, rats were divided into different experimental groups that were matched on the basis of avg. 0-15 min. water intake and body weight. On the day of testing, a test sample, containing as the active ingredient the compound prepared in Example 2, was administered. […] Food was removed from the animal at the start of the drinking test. A student t test was used for making statistical comparisons, and the p-values are based upon two-tailed comparisons.

[3] = 32.0 mg/kg i.g., injection volume 3.0 ml./kg
[4] = 75.0 mg/kg i.g., injection volume 3.0 ml./kg

Compound: O=c1c(-c2ccc(Cl)cc2)c2c(cn1CO)Sc1ccccc1N2 [Example 1, 4-(4-chlorophenyl)-2-(hydroxymethyl)-5H-pyrido[3,4-b][1,4]benzothiazin-3(2H)-one]
- Food Intake % of control, 1 Hr. ([1]; 10.0 mg/kg i.g.): 109.8 % of control
- Food Intake % of control, 2 Hr. ([1]; 10.0 mg/kg i.g.): 104.5 % of control
- Food Intake % of control, 6 Hr. ([1]; 10.0 mg/kg i.g.): 92.1 % of control
- Food Intake % of control, 1 Hr. ([1]; 32.0 mg/kg i.g.): 90.2 % of control
- Food Intake % of control, 2 Hr. ([1]; 32.0 mg/kg i.g.): 86.6 % of control
- Food Intake % of control, 6 Hr. ([1]; 32.0 mg/kg i.g.): 86.5 % of control
- oral appetite suppressant activity [1]: possess oral appetite suppressant activity

Compound: CCCC(=O)OCn1cc2c(c(-c3ccc(Cl)cc3)c1=O)Nc1ccccc1S2 [Example 2, 4-(4-chlorophenyl)-2-[(1-oxobutoxy)methyl]-5H-pyrido[3,4-b][1,4]benzothiazin-3-(2H)-one]
- Water Intake as a % of Control, 15 m ([2]; 10.0 mg/kg i.g.): 96.4 % of Control
- Water Intake as a % of Control, 30 m ([2]; 10.0 mg/kg i.g.): 98.3 % of Control
- Water Intake as a % of Control, 45 m ([2]; 10.0 mg/kg i.g.): 99.2 % of Control
- Water Intake as a % of Control, 60 m ([2]; 10.0 mg/kg i.g.): 100.0 % of Control
- Water Intake as a % of Control, 120 m ([2]; 10.0 mg/kg i.g.): 103.7 % of Control
- Water Intake as a % of Control, 15 m ([2]; 18.0 mg/kg i.g.): 89.2 % of Control
- Water Intake as a % of Control, 30 m ([2]; 18.0 mg/kg i.g.): 89.1 % of Control
- Water Intake as a % of Control, 45 m ([2]; 18.0 mg/kg i.g.): 88.6 % of Control
- Water Intake as a % of Control, 60 m ([2]; 18.0 mg/kg i.g.): 92.0 % of Control
- Water Intake as a % of Control, 120 m ([2]; 18.0 mg/kg i.g.): 94.8 % of Control
- Water Intake as a % of Control, 15 m ([2]; 32.0 mg/kg i.g.): 64.9 % of Control
- Water Intake as a % of Control, 30 m ([2]; 32.0 mg/kg i.g.): 69.7 % of Control
- Water Intake as a % of Control, 45 m ([2]; 32.0 mg/kg i.g.): 70.7 % of Control
- Water Intake as a % of Control, 60 m ([2]; 32.0 mg/kg i.g.): 75.2 % of Control
- Water Intake as a % of Control, 120 m ([2]; 32.0 mg/kg i.g.): 79.3 % of Control
- Food Intake % of control, 1 Hr. ([1]; 1.0 mg/kg i.p.): 87.9 % of control
- Food Intake % of control, 2 Hr. ([1]; 1.0 mg/kg i.p.): 90.9 % of control
- Food Intake % of control, 6 Hr. ([1]; 1.0 mg/kg i.p.): 100.0 % of control
- Food Intake % of control, 1 Hr. ([1]; 3.2 mg/kg i.p.): 57.6 % of control
- Food Intake % of control, 2 Hr. ([1]; 3.2 mg/kg i.p.): 76.6 % of control
- Food Intake % of control, 6 Hr. ([1]; 3.2 mg/kg i.p.): 91.0 % of control
- Food Intake % of control, 1 Hr. ([1]; 10.0 mg/kg i.g.): 85.7 % of control
- Food Intake % of control, 2 Hr. ([1]; 10.0 mg/kg i.g.): 93.6 % of control
- Food Intake % of control, 6 Hr. ([1]; 10.0 mg/kg i.g.): 92.5 % of control
- Food Intake % of control, 1 Hr. ([1]; 10.0 mg/kg i.p.): 39.4 % of control
- Food Intake % of control, 2 Hr. ([1]; 10.0 mg/kg i.p.): 61.0 % of control
- Food Intake % of control, 6 Hr. ([1]; 10.0 mg/kg i.p.): 88.1 % of control
- Food Intake % of control, 1 Hr. ([1]; 32.0 mg/kg i.g.): 57.1 % of control
- Food Intake % of control, 2 Hr. ([1]; 32.0 mg/kg i.g.): 74.4 % of control
- Food Intake % of control, 6 Hr. ([1]; 32.0 mg/kg i.g.): 87.9 % of control
- Food Intake % of control, 1 Hr. ([1]; 32.0 mg/kg i.p.): 30.3 % of control
- Food Intake % of control, 2 Hr. ([1]; 32.0 mg/kg i.p.): 40.3 % of control
- Food Intake % of control, 6 Hr. ([1]; 32.0 mg/kg i.p.): 70.3 % of control
- oral appetite suppressant activity [1]: possess oral appetite suppressant activity

Compound: CCCCC(=O)OCn1cc2c(c(-c3ccc(Cl)cc3)c1=O)Nc1ccccc1S2 [Example 3, 4-(4-chlorophenyl)-2-[(1-oxopentoxy)methyl]-5H-pyrido[3,4-b][1,4]benzothiazin-3(2H)-one]
- Food Intake % of control, 1 Hr. [1, 3]: 83.3 % of control
- Food Intake % of control, 2 Hr. [1, 3]: 100.0 % of control
- Food Intake % of control, 6 Hr. [1, 3]: 111.5 % of control
- Food Intake % of control, 1 Hr. [1, 4]: 68.5 % of control
- Food Intake % of control, 2 Hr. [1, 4]: 96.8 % of control
- Food Intake % of control, 6 Hr. [1, 4]: 102.6 % of control
- oral appetite suppressant activity [1]: possess oral appetite suppressant activity

Compound: O=c1c(-c2ccc(Cl)cc2)c2c(cn1CO)Sc1ccc(Cl)cc1N2 [Example 5, 7-chloro-4-(4-chlorophenyl)-2-(hydroxymethyl)-5H-pyrido[3,4-b][1,4]benzothiazin-3(2H)-one]
- Food Intake % of control, 1 Hr. ([1]; 75.0 mg/kg i.g.): 89.9 % of control
- Food Intake % of control, 2 Hr. ([1]; 75.0 mg/kg i.g.): 96.1 % of control
- Food Intake % of control, 6 Hr. ([1]; 75.0 mg/kg i.g.): 83.1 % of control

Compound: CC(C)(C)C(=O)OCn1cc2c(c(-c3ccc(Cl)cc3)c1=O)Nc1ccccc1S2 [Example 9, 4-(4-chlorophenyl)-2-[(2,2-dimethyl-1-oxopropoxy)methyl]-5H-pyrido[3,4-b][1,4]benzothiazin-3(2H)-one]
- Food Intake % of control, 1 Hr. ([1]; 10.0 mg/kg i.g.): 111.1 % of control
- Food Intake % of control, 2 Hr. ([1]; 10.0 mg/kg i.g.): 102.6 % of control
- Food Intake % of control, 6 Hr. ([1]; 10.0 mg/kg i.g.): 96.3 % of control
- Food Intake % of control, 1 Hr. ([1]; 32.0 mg/kg i.g.): 111.1 % of control
- Food Intake % of control, 2 Hr. ([1]; 32.0 mg/kg i.g.): 106.4 % of control
- Food Intake % of control, 6 Hr. ([1]; 32.0 mg/kg i.g.): 92.5 % of control
